Source: PMC5518096, “Use of a special Brazilian red-light emitting railroad worm Luciferase in bioassays of NEK7 protein Kinase and Creatine Kinase” (BMC Biochemistry, 2017)

Experiments:
Experiment in all cases: ATP consumption, coupled red luciferase luminescence
Assay type in all cases: biochemical
[1] = target: NEK7 (6xHis-NEK7) (Homo sapiens, UniProt Q8TDX7); settings: 1 uM ATP, protein substrates NEK9(764-976), MAT1 or CC2D1A(501-940), 4 mM MgSO4, pH 8, 37 °C
[2] = target: T1, sMtCK (6xHis-sarcomeric creatine kinase, pUS01) (Homo sapiens, UniProt P17540); settings: 5 mM creatine, 50 uM ATP, 4 mM MgSO4, pH 8, 37 °C, 30 min
T1 construct: gene CKMT2; 6xHis, pET3b plasmid pUS01 (Schlattner), E. coli BL21(DE3)

[3] = target: T2, uMtCK (6xHis-ubiquitous creatine kinase, pUS04) (Homo sapiens, UniProt P12532); settings: 5 mM creatine, 50 uM ATP, 4 mM MgSO4, pH 8, 37 °C, 30 min
T2 construct: gene CKMT1A; 6xHis, pET3b plasmid pUS04 (Schlattner), E. coli BL21(DE3)

Sequence of NEK7 (6xHis-NEK7) (Q8TDX7 whole entry): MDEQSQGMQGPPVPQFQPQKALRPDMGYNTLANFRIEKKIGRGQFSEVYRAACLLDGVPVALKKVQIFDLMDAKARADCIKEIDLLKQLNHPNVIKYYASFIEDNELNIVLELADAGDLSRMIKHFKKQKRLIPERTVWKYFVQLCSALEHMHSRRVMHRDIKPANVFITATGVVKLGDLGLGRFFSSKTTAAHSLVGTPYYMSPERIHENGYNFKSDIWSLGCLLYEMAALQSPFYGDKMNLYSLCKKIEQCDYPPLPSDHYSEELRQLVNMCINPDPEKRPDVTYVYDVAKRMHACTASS

| SMILES | ATP consumption, coupled red luciferase luminescence [1] | ATP consumption, coupled red luciferase luminescence [2] | ATP consumption, coupled red luciferase luminescence [3] |
| --- | --- | --- | --- |
| Nc1ncnc2c1ncn2[C@@H]1O[C@H](COP(=O)(O)OP(=O)(O)OP(=O)(O)O)[C@@H](O)[C@H]1O [ATP] | ATP consumption by NEK7, due to its phosphorylation of substrate proteins/domains | ATP was consumed only in the presence of creatine kinase and creatine | ATP was consumed only in the presence of creatine kinase and creatine |
| CN(CC(=O)O)C(=N)N [creatine] | – | when creatine was added, the light emission was significantly decreased | – |
